Tests used:
FER [1] = biological target: T1, FER (Homo sapiens, UniProt P16591); assay: free ATP competition with ATP acyl phosphate probe, SILAC LC-MS; type: cell-based
DGKκ = biological target: T2, DGKκ (Homo sapiens, UniProt Q5KSL6); assay: free ATP; type: cell-based
T2 sequence (Q5KSL6 1-1271): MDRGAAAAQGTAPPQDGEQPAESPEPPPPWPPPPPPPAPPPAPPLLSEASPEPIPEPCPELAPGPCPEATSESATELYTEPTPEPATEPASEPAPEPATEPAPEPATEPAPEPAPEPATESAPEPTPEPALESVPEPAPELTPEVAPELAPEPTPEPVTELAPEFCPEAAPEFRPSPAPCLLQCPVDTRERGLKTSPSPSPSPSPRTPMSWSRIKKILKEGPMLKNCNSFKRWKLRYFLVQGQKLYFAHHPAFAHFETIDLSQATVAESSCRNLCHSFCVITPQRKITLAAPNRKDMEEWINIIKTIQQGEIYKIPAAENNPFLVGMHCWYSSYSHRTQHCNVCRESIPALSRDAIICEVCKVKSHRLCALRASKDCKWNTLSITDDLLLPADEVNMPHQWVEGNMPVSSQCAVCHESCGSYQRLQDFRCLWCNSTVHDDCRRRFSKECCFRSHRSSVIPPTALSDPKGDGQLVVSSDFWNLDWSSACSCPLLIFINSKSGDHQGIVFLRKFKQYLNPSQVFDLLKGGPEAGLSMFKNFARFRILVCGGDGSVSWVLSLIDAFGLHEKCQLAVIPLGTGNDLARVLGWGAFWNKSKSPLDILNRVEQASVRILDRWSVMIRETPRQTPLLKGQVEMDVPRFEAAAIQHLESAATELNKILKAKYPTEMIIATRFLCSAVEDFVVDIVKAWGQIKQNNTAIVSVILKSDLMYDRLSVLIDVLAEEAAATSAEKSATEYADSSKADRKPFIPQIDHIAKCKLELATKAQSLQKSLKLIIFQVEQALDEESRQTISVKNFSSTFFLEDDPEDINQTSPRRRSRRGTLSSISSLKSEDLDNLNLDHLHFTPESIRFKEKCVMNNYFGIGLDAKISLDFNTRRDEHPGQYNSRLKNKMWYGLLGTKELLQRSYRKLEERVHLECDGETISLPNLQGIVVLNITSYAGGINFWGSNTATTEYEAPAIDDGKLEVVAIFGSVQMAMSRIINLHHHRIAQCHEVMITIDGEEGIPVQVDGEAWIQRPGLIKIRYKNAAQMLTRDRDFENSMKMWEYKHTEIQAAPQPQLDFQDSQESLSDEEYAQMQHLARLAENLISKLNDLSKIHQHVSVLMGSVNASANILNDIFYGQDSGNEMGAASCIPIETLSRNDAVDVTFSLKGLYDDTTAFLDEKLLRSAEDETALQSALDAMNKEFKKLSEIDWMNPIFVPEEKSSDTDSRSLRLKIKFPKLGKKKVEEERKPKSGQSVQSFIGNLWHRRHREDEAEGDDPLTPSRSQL

DGKζ = DGKζ (Homo sapiens, UniProt Q13574); assay: free ATP; type: cell-based
DGKθ = biological target: T3, DGKθ (Homo sapiens, UniProt P52824); assay: free ATP; type: cell-based
T3 sequence (P52824 1-942): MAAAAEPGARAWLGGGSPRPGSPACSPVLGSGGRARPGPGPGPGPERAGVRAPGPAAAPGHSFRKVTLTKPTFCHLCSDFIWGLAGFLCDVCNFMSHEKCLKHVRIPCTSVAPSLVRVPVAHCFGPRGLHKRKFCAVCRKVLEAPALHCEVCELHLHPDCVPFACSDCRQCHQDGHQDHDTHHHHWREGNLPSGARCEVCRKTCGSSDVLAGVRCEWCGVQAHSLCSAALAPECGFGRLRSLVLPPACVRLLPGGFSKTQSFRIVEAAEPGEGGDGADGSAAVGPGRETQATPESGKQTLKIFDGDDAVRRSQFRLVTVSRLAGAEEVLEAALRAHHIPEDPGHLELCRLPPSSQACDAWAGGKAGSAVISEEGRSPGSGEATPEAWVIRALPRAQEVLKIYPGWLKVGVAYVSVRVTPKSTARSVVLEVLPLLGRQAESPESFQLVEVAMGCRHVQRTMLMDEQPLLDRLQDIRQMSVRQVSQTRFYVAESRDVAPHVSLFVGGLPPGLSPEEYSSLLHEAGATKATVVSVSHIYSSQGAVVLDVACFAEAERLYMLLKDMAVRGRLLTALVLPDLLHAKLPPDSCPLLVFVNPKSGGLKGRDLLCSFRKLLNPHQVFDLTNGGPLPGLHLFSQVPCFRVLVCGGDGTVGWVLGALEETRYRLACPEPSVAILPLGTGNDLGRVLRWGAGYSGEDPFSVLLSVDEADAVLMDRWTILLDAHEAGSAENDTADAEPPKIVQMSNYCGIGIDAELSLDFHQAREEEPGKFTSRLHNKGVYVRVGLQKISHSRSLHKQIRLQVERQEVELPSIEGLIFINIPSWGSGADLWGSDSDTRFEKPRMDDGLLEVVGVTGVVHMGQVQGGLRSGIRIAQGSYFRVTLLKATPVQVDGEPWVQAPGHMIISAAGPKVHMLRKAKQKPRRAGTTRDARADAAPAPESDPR

DGKα = DGKα (Rattus norvegicus, UniProt P51556); assay: ADP-Glo DAG phosphorylation assay in lysate; type: biochemical
FER [2] = biological target: T1, FER; assay: ATP acyl phosphate probe competition, SILAC LC-MS; type: cell-based

T1 sequence (P16591 whole entry): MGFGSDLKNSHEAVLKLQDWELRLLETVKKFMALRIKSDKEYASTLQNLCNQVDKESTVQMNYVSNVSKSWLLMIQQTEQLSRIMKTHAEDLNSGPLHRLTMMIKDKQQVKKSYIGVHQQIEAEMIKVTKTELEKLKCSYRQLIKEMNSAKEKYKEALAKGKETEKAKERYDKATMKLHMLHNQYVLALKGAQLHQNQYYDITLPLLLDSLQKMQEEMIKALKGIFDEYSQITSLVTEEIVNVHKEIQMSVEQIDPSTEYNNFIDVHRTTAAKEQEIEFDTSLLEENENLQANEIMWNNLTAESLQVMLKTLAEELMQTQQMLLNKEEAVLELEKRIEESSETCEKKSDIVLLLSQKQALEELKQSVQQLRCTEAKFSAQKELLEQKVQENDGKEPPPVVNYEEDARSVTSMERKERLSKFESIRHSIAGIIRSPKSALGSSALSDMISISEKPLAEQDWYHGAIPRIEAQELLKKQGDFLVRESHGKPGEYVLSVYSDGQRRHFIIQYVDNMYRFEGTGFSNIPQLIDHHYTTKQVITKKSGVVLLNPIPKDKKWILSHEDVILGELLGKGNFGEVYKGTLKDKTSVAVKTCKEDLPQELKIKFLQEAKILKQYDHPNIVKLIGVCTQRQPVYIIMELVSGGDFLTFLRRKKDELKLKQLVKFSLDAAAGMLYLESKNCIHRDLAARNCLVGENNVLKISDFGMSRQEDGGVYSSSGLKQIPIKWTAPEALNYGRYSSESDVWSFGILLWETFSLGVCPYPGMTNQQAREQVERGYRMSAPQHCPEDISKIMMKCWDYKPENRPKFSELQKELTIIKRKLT
Sequence of DGKα (P51556 whole entry): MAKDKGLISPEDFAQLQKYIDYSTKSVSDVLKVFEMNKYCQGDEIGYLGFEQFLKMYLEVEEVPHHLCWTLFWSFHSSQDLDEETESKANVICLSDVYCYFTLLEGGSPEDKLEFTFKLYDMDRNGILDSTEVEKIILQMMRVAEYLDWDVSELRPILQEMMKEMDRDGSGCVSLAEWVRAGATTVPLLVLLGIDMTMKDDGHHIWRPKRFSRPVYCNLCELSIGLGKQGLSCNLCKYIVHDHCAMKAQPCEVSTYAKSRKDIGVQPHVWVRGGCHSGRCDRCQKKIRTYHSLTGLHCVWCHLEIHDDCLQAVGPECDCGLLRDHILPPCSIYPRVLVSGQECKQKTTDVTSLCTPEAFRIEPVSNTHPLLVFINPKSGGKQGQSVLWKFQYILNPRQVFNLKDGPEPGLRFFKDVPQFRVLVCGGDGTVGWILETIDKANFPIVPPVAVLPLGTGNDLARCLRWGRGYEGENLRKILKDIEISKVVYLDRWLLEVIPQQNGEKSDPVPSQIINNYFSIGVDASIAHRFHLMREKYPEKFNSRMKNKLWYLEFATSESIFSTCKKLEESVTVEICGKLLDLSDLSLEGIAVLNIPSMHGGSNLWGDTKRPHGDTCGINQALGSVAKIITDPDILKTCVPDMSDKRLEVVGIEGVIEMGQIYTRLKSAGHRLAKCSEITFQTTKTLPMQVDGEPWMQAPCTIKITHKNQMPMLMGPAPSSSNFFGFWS
Sequence of DGKζ (Q13574 whole entry): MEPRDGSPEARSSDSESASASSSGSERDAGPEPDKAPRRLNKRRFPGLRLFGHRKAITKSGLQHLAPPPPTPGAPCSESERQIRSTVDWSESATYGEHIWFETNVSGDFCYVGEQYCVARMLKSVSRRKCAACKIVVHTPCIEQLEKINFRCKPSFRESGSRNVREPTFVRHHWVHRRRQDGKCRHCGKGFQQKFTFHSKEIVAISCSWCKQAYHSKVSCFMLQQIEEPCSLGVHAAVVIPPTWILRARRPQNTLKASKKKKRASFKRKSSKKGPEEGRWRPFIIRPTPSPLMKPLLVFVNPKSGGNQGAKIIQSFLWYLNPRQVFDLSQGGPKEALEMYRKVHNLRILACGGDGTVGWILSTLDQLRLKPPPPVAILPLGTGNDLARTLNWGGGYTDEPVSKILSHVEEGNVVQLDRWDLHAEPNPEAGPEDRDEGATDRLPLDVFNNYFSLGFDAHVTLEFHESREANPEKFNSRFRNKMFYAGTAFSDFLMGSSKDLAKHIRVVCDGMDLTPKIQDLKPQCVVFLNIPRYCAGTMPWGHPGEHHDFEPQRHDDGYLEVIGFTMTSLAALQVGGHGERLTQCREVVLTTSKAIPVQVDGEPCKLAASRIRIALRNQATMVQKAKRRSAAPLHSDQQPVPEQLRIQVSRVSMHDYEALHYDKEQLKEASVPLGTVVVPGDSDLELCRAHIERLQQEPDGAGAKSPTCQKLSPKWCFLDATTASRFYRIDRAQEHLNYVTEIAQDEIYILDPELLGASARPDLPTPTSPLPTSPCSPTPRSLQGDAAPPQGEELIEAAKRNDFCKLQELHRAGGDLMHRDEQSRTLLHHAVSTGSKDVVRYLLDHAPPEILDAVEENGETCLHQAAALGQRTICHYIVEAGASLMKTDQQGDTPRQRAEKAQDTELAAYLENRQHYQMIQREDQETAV

Nc1ncnc2c1ncn2[C@@H]1O[C@H](COP(=O)(O)OP(=O)(O)OP(=O)(O)O)[C@@H](O)[C@H]1O [ATP]
free ATP competition with ATP acyl phosphate probe, SILAC LC-MS (FER [1]): 19.3 | free ATP (1 mM) competition with ATP acyl phosphate probe, SILAC LC-MS (DGKκ): 15.0 | free ATP (1 mM) competition with ATP acyl phosphate probe, SILAC LC-MS (DGKζ): 16.7 | free ATP (1 mM) competition with ATP acyl phosphate probe, SILAC LC-MS (DGKθ): 14.4

Fc1ccc(C(=C2CCNCC2)c2ccc(F)cc2)cc1 [RF001]
IC50 (DGKα): 223 µM

Cc1nc2sccn2c(=O)c1CCN1CCC(=C(c2ccc(F)cc2)c2ccc(F)cc2)CC1 [ritanserin]
ATP acyl phosphate probe competition, SILAC LC-MS (100 μM compound, SR = 7.9) (FER [2]): 7.9

— PMC5551460 (Cell chemical biology, 2017)
